Experimental data reported in ChEMBL document CHEMBL3132753, “Synthesis and biological evaluation of 2-acetamidothiophene-3-carboxamide derivatives against Leishmania donovani” (Medchemcomm, 2014).

Assays:
Leishmania donovani [1] = experiment: Antileishmanial activity against promastigote stage of Leishmania donovani MHOM/ET/67/HU3 assessed as parasite viability after 48 hrs by resazurin dye-based assay; format: functional, organism-based; settings: MHOM/ET/67/HU3, 48 h
[2] = Cytotoxicity against human THP1 cells; format: cell-based; settings: THP-1 cells
Leishmania donovani [3] = experiment: Antileishmanial activity against amastigote stage of Leishmania donovani MHOM/ET/67/HU3 infected in human THP1 cells assessed as parasite clearance after 3 days by Draq5 staining-based confocal microscopic analysis; format: functional, organism-based; settings: MHOM/ET/67/HU3, THP-1, 72 h
[4] = Selectivity index, ratio of CC50 for human THP1 cells to EC50 for amastigote stage of Leishmania donovani MHOM/ET/67/HU3; format: toxicity, cell-based; settings: THP-1 cells, read-out: Ratio CC50/EC50

SMILES | EC50 (Leishmania donovani [1]) | CC50 [2] | EC50 (Leishmania donovani [3]) | selectivity ratio [4]
COc1ccccc1NC(=O)c1c(NC(=O)C(F)(F)F)sc2c1CCCCC2 | 42 µM | > 50 µM | > 50 µM | 
COc1ccc(NC(=O)c2ccsc2NC(=O)C(F)(F)F)cc1 | > 50 µM | > 50 µM | > 50 µM | 
COc1ccc(NC(=O)c2c(NC(=O)c3ccccc3)sc3c2CCCCC3)cc1 |  | > 50 µM | > 50 µM | 
COc1ccc(NC(=O)c2c(NC(=O)C(F)(F)F)sc3c2CCCC3)cc1 | > 50 µM | > 50 µM | 14.6 µM | > 3.42
COc1cccc(NC(=O)c2c(NC(=O)C(F)(F)F)sc3c2CCCCC3)c1 | 21.5 µM | 37.6 µM | 10.1 µM | 3.71
COc1ccc(NC(=O)c2c(NC(=O)C(F)(F)F)sc3c2CCC3)cc1 |  | > 50 µM | > 50 µM | 
CC(C)(C)NC(=O)c1c(NC(=O)C(F)(F)F)sc2c1CCCCC2 |  | > 50 µM | > 50 µM | 
COc1ccc(NC(=O)c2c(NC(C)=O)sc3c2CCCCC3)cc1 | > 50 µM | > 50 µM | > 50 µM | 
COC(=O)Nc1sc2c(c1C(=O)Nc1ccc(OC)cc1)CCCCC2 |  | > 50 µM | > 50 µM | 
O=C(Nc1ccc(Cl)cc1)c1c(NC(=O)C(F)(F)F)sc2c1CCCCC2 |  | > 50 µM | > 50 µM | 
CC(=O)Nc1sc2c(c1C(=O)OC(C)(C)C)CCCCC2 |  | > 50 µM | > 50 µM | 
C[C@@H]1[C@H](O)[C@@H](C)/C=C/C=C/C=C/C=C/C=C/C=C/C=C/[C@H](O[C@@H]2O[C@H](C)[C@@H](O)[C@H](N)[C@@H]2O)C[C@@H]2O[C@](O)(C[C@@H](O)C[C@@H](O)[C@H](O)CC[C@@H](O)C[C@@H](O)CC(=O)O[C@H]1C)C[C@H](O)[C@H]2C(=O)O [AMPHOTERICIN B] | 0.18 µM | 7.57 µM | 0.25 µM | 30.2
O=C(Nc1ccc(C(F)(F)F)cc1)c1c(NC(=O)C(F)(F)F)sc2c1CCCCC2 | > 50 µM | 17.2 µM | 17.6 µM | 0.9
O=C(Nc1ccc(OC(F)(F)F)cc1)c1c(NC(=O)C(F)(F)F)sc2c1CCCCC2 | > 50 µM | 11.9 µM | 9.85 µM | 1.2
COc1ccc(NC(=O)c2c(NC(=O)C(F)(F)F)sc(C)c2C)cc1 | > 50 µM | > 50 µM | 10.1 µM | > 4.95
CC(C)(C)OC(=O)c1c(N)sc2c1CCCCC2 |  | > 50 µM | > 50 µM | 
CCCCCCCCCCCCCCCCOP(=O)([O-])OCC[N+](C)(C)C [MILTEFOSINE] | 7.4 µM | 22.7 µM | 7.1 µM | 3.19
COc1ccc(CNC(=O)c2c(NC(=O)C(F)(F)F)sc3c2CCCCC3)cc1 | > 50 µM | > 50 µM | > 50 µM | 
COc1ccc(NC(=O)c2c(NC(=O)C(F)(F)F)sc3c2CCCCC3)cc1 | > 50 µM | > 50 µM | 6.41 µM | > 7.8
N#Cc1ccc(NC(=O)c2c(NC(=O)C(F)(F)F)sc3c2CCCCC3)cc1 | > 50 µM | 9.11 µM | 8.53 µM | 1.06
Cc1ccc(NC(=O)c2c(NC(=O)C(F)(F)F)sc3c2CCCCC3)cc1 |  | > 50 µM | > 50 µM | 
